From article PMC8623273, “Novel N7-Arylmethyl Substituted Dinucleotide mRNA 5′ cap Analogs: Synthesis and Evaluation as Modulators of Translation” (Pharmaceutics, 2021)
Where two headings read alike, the source gives them in different places.

Tests used:
[1] = target: eukaryotic translation initiation factor 4E (eIF4E) (Mus musculus, UniProt P63073); experiment: pyrene-probe fluorescent competitive-binding assay (PyFLINT-B) for cap analog-eIF4E; settings: for Kd: pyrene-based high-throughput competition assay, 30 °C, KD calculated from EC50, read-out: KD Cap-eIF4E ± SD; for EC50: Table S2; for effect of the N7 substituent on eIF4E binding (in words): compared to m^7GpppG / 1a or unmodified counterpart
Excerpt: High affinity for eIF4E is a desirable feature of cap analogs designed for modulating translation, either as small molecules or as a part of mRNA. Thus, we studied how different substituents at the N7-position affected eIF4E-cap interaction. To this end, we first determined the affinity of m^7GpppG and Bn^7GpppG (1a) using time-synchronized fluorescence quenching titration, a very precise and well-established, but low-throughput method. Next, to evaluate the whole set of the synthesized compounds (1a–1r), we used a high-throughput competitive-binding assay based on a pyrene-labeled fluorescent probe. From this assay we determined relative affinities of the compounds represented by half-effective concentrations (EC50) (Figure 3A–C), which were then used to calculate dissociation constant (KD) values for cap analog–eIF4E complexes using previously reported equations (Table 2, Figure 3D).
To determine the dissociation constants of the library of N7-benzylated dinucleotide 5′ cap analogs for translation initiation factor 4E, a fluorescent competitive-binding assay (PyFLINT-B) was applied as previously described. The experiments were performed on a Synergy™ H1 plate reader in 96-well, black, non-binding assay plates. Each well contained an appropriate buffer (50 mM Hepes/KOH pH 7.2, 100 mM KCl and 0.5 mM EDTA), pyrene probe m^7Gp5C4Py (10 nM), substrate (in half-logarithmic dilutions from 850 μM to 0.03 μM for compound 1m and from 100 μM to 0.003 μM for m^7GpppG and the rest of the compounds) and protein eIF4E (75 nM). The m^7Gp5C4Py was synthesized as describer earlier. The pyrene probe was dissolved in water and concentration was determined spectrometrically at 345 nm using the extinction coefficient (21,000 M^−1 cm^−1). The eIF4E protein was centrifuged after defrosting (5 min, 4 °C, 10k rcf) and its concentration was determined spectrometrically at 280 nm using the extinction coefficient (52,940 M^−1 cm^−1). The reaction mixtures were preincubated (15 min, 300 rpm, 30 °C). All measurements were performed at 30 °C and the fluorescence detection at 345 nm excitation and 378 nm emission was recorded.
To determine EC50 values, GraphPad Prism 9.1.2 software was used. To fit the curves to the obtained data we used the following formula:(1) Y=Bottom+ Top−Bottom/1+ X/EC50 where: X, cap analog (ligand) concentration; EC50, concentration of the cap analog resulting in half-maximal response from the fluorescent probe–protein complex; Bottom, minimal signal from the negative control, which contains only the free probe; Top, maximal signal from the positive control, the mixture of the protein and the fluorescent probe.
The dissociation constants KD were then calculated using the equation described by Nikolovska-Coleska et al.:(2) KD=EC50−Pt+PL50KD_probe/L50+1/L50/KD_probe+P0/KD_probe+1 where: EC50, concentration of the cap analog resulting in half-maximal response from the fluorescent probe–protein complex; [Pt], total protein concentration; [PL]50, concentration of the probe–protein complex at 50% inhibition; KD_probe, dissociation constant of the complex between the fluorescent probe and the protein; [L]50, probe concentration at 50% inhibition; [P]0, free protein concentration at 0% inhibition.

[2] = test system: cap-dependent translation in rabbit reticulocyte lysate (RRL); experiment: inhibition of cap-dependent translation in rabbit reticulocyte lysate (RRL); type: biochemical
Description: After determining the affinity for eIF4E and susceptibility to DcpS, we evaluated the analogs as inhibitors of protein translation in rabbit reticulocyte lysates (RRL). To enable better assessment of how these two factors influenced inhibitory properties, we performed two sets of experiments. In the first set, cap analogs were added to RRL along with luciferase-encoding reporter mRNA followed by a protein activity (luminescence) readout after 1 h, whereas in the second set cap analogs were additionally preincubated in RRL for 1 h prior to addition of mRNA. Based on previously reported findings, we expected that in the second experimental setup, cap analogs susceptible to DcpS would lose their inhibitory potency, whereas compounds resistant to DcpS would remain similarly active.
The ability of the N7-benzyl cap analogues to inhibit cap-dependent translation was assayed in a rabbit reticulocyte lysate (RRL) system. Two sets of experiments were performed. In both variants, in vitro translation reactions (10 μL total volume) contained a tested cap analog (inhibitor) and an in vitro transcribed, ARCA-capped mRNA encoding Gaussia luciferase at 1 μg/mL final concentration. In experimental variant A, cap analogues at concentrations in the range of 0 to 64 μM and mRNA were added to the reaction mixture at the same time. Reactions were incubated at 30 °C for 60 min and then stopped by freezing in liquid nitrogen. In experimental variant B, the cap analogues were added at concentrations in the range of 0 to 160 μM. Reactions were pre-incubated at 30 °C for 60 min prior to addition of mRNA; after addition of mRNA incubation was continuous at 30 °C for 60 min and then stopped by freezing in liquid nitrogen. To detect luminescence from Gaussia luciferase, 50 μL of 10 ng/mL h-coelenterazine (NanoLight, Norman, OK, USA) in PBS was added to 10 μL of RRL and the luminescence was measured with a Synergy H1 (BioTek, Winooski, VT, USA) microplate reader.

eIF4E = eIF4E (Mus musculus, UniProt P63073); experiment: fluorescence anisotropy (FA) competition assay with eIF4E; type: binding; settings: Table S2; for EC50: 25 °C, probe m^7GTP-triazol-FAM 10 nM, eIF4E 100 nM; for Kd: calculated from EC50
Excerpt: The KD values determined from the high-throughput assay were in qualitative agreement with data from time-synchronized fluorescence quenching titration, justifying the use of the former for evaluation of the whole set of caps. […] To additionally verify the binding affinity data (especially for 1q and 1r, as mentioned above), we determined the binding affinities for all analogs using another independent assay, based on fluorescence anisotropy. The KD data determined by this method correlated very well with the results reported above (Table S2, Figure S2).
Fractions of the compounds were independently tested using a different method based on fluorescence anisotropy (FA). These experiments were performed on a Synergy™ H1 plate reader in 96-well, black, non-binding assay plates. Each well contained appropriate buffer (50 mM HEPES/KOH pH 7.2, 100 mM KCl, 0.5 mM EDTA i 1 mM DTT), the fluorescent probe m^7GTP-triazol-FAM (10 nM), substrate (in a 2.08-fold dilution, starting from 60 μM) and protein eIF4E (100 nM). The m^7GTP-triazol-FAM was synthesized as describer earlier. All measurements were performed at 25 °C. Determined EC50 values were means ± SD of three independent experiments. The dissociation constants KD were then calculated using the equation described by Nikolovska-Coleska as described earlier.

[3] = RRL, cap analog and mRNA added at the same time (no pre-incubation), 60 min, 30 °C, read-out: Translation Inhibition IC50
[4] = cap analog incubated in RRL for 1 h prior to adding mRNA, read-out: Translation Inhibition IC50 (value in brackets) (converted)

Chain of eIF4E (P63073 whole entry): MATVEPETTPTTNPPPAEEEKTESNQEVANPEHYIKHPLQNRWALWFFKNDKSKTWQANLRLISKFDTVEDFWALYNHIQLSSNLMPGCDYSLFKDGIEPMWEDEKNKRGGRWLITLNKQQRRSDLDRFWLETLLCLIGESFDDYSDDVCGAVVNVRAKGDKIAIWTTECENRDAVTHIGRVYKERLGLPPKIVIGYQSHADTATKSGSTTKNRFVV
Chain of eukaryotic translation initiation factor 4E (eIF4E) (P63073 whole entry): as above

SMILES	Kd [1]	IC50 [2, 3]	IC50 [2, 4]	EC50 (eIF4E)	Kd (eIF4E)	EC50 [1]	effect of the N7 substituent on eIF4E binding (in words) [1]
Nc1nc(O)c2c(n1)n([C@@H]1O[C@H](COP(=O)(O)OP(=O)([O-])OP(=O)(O)OC[C@H]3O[C@@H](n4cnc5c(=O)[nH]c(N)nc54)[C@H](O)[C@@H]3O)[C@@H](O)[C@H]1O)c[n+]2Cc1ccccc1 [1a, Bn^7GpppG]	217 ± 36 nM	7400 ± 1400 nM	9600 nM	270 ± 20 nM	74 ± 23 nM	–	–
Cc1cccc(C[n+]2cn([C@@H]3O[C@H](COP(=O)(O)OP(=O)([O-])OP(=O)(O)OC[C@H]4O[C@@H](n5cnc6c(=O)[nH]c(N)nc65)[C@H](O)[C@@H]4O)[C@@H](O)[C@H]3O)c3nc(N)nc(O)c32)c1 [1c, 3-MeBn^7GpppG]	319 ± 55 nM	6600 ± 800 nM	8200 nM	670 ± 20 nM	222 ± 8 nM	3700 nM	–
CC(C)c1ccc(C[n+]2cn([C@@H]3O[C@H](COP(=O)(O)OP(=O)([O-])OP(=O)(O)OC[C@H]4O[C@@H](n5cnc6c(=O)[nH]c(N)nc65)[C@H](O)[C@@H]4O)[C@@H](O)[C@H]3O)c3nc(N)nc(O)c32)cc1 [1e, 4-iPrBn^7GpppG]	534 ± 100 nM	15200 ± 3100 nM	–	1300 ± 90 nM	444 ± 33 nM	6200 nM	KD increased more than double
Nc1nc(O)c2c(n1)n([C@@H]1O[C@H](COP(=O)(O)OP(=O)([O-])OP(=O)(O)OC[C@H]3O[C@@H](n4cnc5c(=O)[nH]c(N)nc54)[C@H](O)[C@@H]3O)[C@@H](O)[C@H]1O)c[n+]2Cc1ccc(F)cc1 [1g, 4-F-Bn^7GpppG]	261 ± 54 nM	6000 ± 900 nM	21400 nM	240 ± 80 nM	64 ± 31 nM	3100 nM	–
Nc1nc(O)c2c(n1)n([C@@H]1O[C@H](COP(=O)(O)OP(=O)([O-])OP(=O)(O)OC[C@H]3O[C@@H](n4cnc5c(=O)[nH]c(N)nc54)[C@H](O)[C@@H]3O)[C@@H](O)[C@H]1O)c[n+]2Cc1ccc(Cl)cc1 [1h, 4-Cl-Bn^7GpppG]	221 ± 37 nM	18700 ± 3000 nM	18700 ± 3600 nM	340 ± 140 nM	102 ± 53 nM	2600 nM	–
Nc1nc(O)c2c(n1)n([C@@H]1O[C@H](COP(=O)(O)OP(=O)([O-])OP(=O)(O)OC[C@H]3O[C@@H](n4cnc5c(=O)[nH]c(N)nc54)[C@H](O)[C@@H]3O)[C@@H](O)[C@H]1O)c[n+]2Cc1ccc(Br)cc1 [1i, 4-Br-Bn^7GpppG]	172 ± 26 nM	6400 ± 1000 nM	22200 nM	210 ± 10 nM	52 ± 3 nM	2000 nM	–
Nc1nc(O)c2c(n1)n([C@@H]1O[C@H](COP(=O)(O)OP(=O)([O-])OP(=O)(O)OC[C@H]3O[C@@H](n4cnc5c(=O)[nH]c(N)nc54)[C@H](O)[C@@H]3O)[C@@H](O)[C@H]1O)c[n+]2Cc1ccc(F)c(F)c1 [1k, 3,4-di-F-Bn^7GpppG]	489 ± 77 nM	8200 ± 1100 nM	21400 nM	880 ± 80 nM	301 ± 30 nM	5700 nM	–
Nc1nc(O)c2c(n1)n([C@@H]1O[C@H](COP(=O)(O)OP(=O)([O-])OP(=O)(O)OC[C@H]3O[C@@H](n4cnc5c(=O)[nH]c(N)nc54)[C@H](O)[C@@H]3O)[C@@H](O)[C@H]1O)c[n+]2Cc1ccc(C(F)(F)F)cc1 [1l, 4-CF3-Bn^7GpppG]	293 ± 43 nM	9700 ± 2000 nM	40000 nM	590 ± 40 nM	194 ± 17 nM	–	–
Nc1nc(O)c2c(n1)n([C@@H]1O[C@H](COP(=O)(O)OP(=O)([O-])OP(=O)(O)OC[C@H]3O[C@@H](n4cnc5c(=O)[nH]c(N)nc54)[C@H](O)[C@@H]3O)[C@@H](O)[C@H]1O)c[n+]2Cc1ccc([N+](=O)[O-])cc1 [1n, 4-NO2-Bn^7GpppG]	367 ± 71 nM	28200 ± 7500 nM	–	520 ± 120 nM	168 ± 43 nM	4300 nM	accepted by the protein
CO[C@@H]1[C@H](O)[C@@H](COP(=O)(O)OP(=O)([O-])OP(=O)(O)OC[C@H]2O[C@@H](n3cnc4c(=O)[nH]c(N)nc43)[C@H](O)[C@@H]2O)O[C@H]1n1c[n+](Cc2ccccc2)c2c(O)nc(N)nc21 [1q, Bn^7GmpppG]	171 ± 25 nM	3700 ± 500 nM	8200 nM	180 ± 30 nM	40 ± 11 nM	2000 nM	twofold increase in cap-binding affinity
CO[C@@H]1[C@H](O)[C@@H](COP(=O)(O)OP(=O)([O-])OP(=O)(O)OC[C@H]2O[C@@H](n3cnc4c(=O)[nH]c(N)nc43)[C@H](O)[C@@H]2O)O[C@H]1n1c[n+](Cc2ccc(Cl)cc2)c2c(O)nc(N)nc21 [1r, 4-Cl-Bn^7GmpppG]	132 ± 20 nM	6000 ± 900 nM	–	190 ± 20 nM	45 ± 7 nM	1600 nM	twofold increase in cap-binding affinity
